Reference: paper PMC7251097, “Aspartate/asparagine-β-hydroxylase: a high-throughput mass spectrometric assay for discovery of small molecule inhibitors” (Scientific Reports, 2020)
Like-named read-outs stand apart in the source and are kept apart here. Values belong to the compound of their own block, whether it stands above or below them.

Target: T1, His6-AspH315–758 (human aspartate/asparagine-β-hydroxylase, AspH) (Homo sapiens, UniProt Q12797)
T1 construct: N-Terminally His6-tagged human AspH315–758 (His6-AspH315–758) was produced in E. coli BL21 (DE3) cells; made in house; host or cells: E. coli BL21 (DE3), pET-28a(+) vector
T1 sequence (Q12797 315-758): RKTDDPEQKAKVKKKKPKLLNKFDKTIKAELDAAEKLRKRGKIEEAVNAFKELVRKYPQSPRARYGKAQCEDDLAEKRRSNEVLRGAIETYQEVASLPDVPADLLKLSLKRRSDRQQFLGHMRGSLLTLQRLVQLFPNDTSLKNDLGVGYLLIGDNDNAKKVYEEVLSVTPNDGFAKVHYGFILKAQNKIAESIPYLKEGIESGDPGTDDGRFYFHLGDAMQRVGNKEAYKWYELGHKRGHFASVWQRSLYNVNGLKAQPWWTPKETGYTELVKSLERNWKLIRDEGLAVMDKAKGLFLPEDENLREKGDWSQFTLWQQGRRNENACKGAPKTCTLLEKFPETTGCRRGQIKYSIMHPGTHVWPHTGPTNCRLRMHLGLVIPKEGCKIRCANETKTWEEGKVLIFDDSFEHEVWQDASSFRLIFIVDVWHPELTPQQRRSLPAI
Test: SPE-MS AspH inhibition assay (LOPAC screen at fixed 20 μM and IC50 dose-response), hydroxylation of cyclic peptide hFX-CP101–119
Format: biochemical

[1] = LOPAC compound at fixed 20 uM, plate 1, normalised to DMSO and 2,4-PDCA controls
[2] = LOPAC compound at fixed 20 uM, substrate conversion, plate 1
[3] = LOPAC Plate 4, compound at 20 uM, substrate conversion
[4] = LOPAC Plate 4, compound at 20 uM
[5] = LOPAC compound at 20uM, plate 2, conversion of substrate peptide
[6] = LOPAC compound at 20uM, plate 2, normalised to DMSO and 2,4-PDCA controls

Structure (SMILES): NC1CCN(O)C1=O (racemic) [(±)-HA-966]
Plate 1 (% conversion): 36.52%
Plate 1 (% inhibition): -1.94%

Structure (SMILES): O=C(O)C1CCCNC1 (racemic) [(±)-Nipecotic acid]
Plate 1 (% conversion): 30.40%
Plate 1 (% inhibition): 16.29%

Structure (SMILES): CN1CCN(C2Cc3ccccc3Sc3ccc(Cl)cc32)CC1.O=C(O)/C=C\C(=O)O (racemic) [(±)-Octoclothepin maleate]
Plate 3 (% conversion): 45.22%

Structure (SMILES): CC(C)NCC(O)COc1cccc2ccccc12.Cl (racemic) [(±)-Propranolol hydrochloride]
Plate 3 (% conversion): 40.68%

Structure (SMILES): Br.C=CCN1CCc2cc(O)c(O)cc2C(c2ccccc2)C1 (racemic) [(±)-SKF 38393, N-allyl-, hydrobromide]
% conversion: 11.46%
% inhibition (20 µM): 73.28%

Structure (SMILES): Cl.Oc1cc2c(cc1O)C(c1ccccc1)CNCC2 (racemic) [(±)-SKF-38393 hydrochloride]
Plate 2 (% conversion): 10.11%
Plate 2 (% inhibition) (20 µM): 77.21%

Structure (SMILES): CNCC(O)c1ccc(O)cc1 (racemic) [(±)-Synephrine]
% conversion: 25.88%

Structure (SMILES): COc1ccc(CCN(C)CCCC(C#N)(c2ccc(OC)c(OC)c2)C(C)C)cc1OC.Cl (racemic) [(±)-Verapamil hydrochloride]
% conversion: 42.64%
% inhibition (20 µM): -18.08%

Structure (SMILES): Cl.OC1CCCCC1N1CCC(c2ccccc2)CC1 (racemic) [(±)-Vesamicol hydrochloride]
% conversion: 40.91%
% inhibition (20 µM): -13.00%

Structure (SMILES): O=C(O)[C@H]1CCCN[C@H]1C(=O)O (racemic) [(±)-cis-Piperidine-2,3-dicarboxylic acid]
% conversion: 39.41%
% inhibition (20 µM): -8.61%

Structure (SMILES): CCC1(c2ccc(N)cc2)CCC(=O)NC1=O (racemic) [(±)-p-Aminoglutethimide]
Plate 1 (% conversion): 34.85%
Plate 1 (% inhibition): 3.03%

Structure (SMILES): CCCCS(=N)(=O)CCC(N)C(=O)O (racemic) [DL-Buthionine-[S,R]-sulfoximine]
Plate 1 (% conversion): 34.26%
Plate 1 (% inhibition): 4.80%

Next, values leading:

Plate 3 (% conversion) (LOPAC compound at 20uM, plate 3, conversion of substrate peptide): 16.57%
Structure (SMILES): COCCc1ccc(OCC(O)CNC(C)C)cc1.O=C(O)C(O)C(O)C(=O)O (racemic) [(±)-Metoprolol (+)-tartrate]

Plate 1 (% inhibition) [1]: 92.57%
Plate 1 (% conversion) [2]: 4.78%
Structure (SMILES): NC[C@H](O)c1ccc(O)c(O)c1.O=C(O)C(O)C(O)C(=O)O (racemic) [(±)-Norepinephrine (+)bitartrate]

% conversion [3]: 27.49%
Structure (SMILES): CCCN(CCc1ccccc1)C1CCc2c(O)cccc2C1.Cl (racemic) [(±)-PPHT hydrochloride]

% inhibition [4]: -12.79%
% conversion [3]: 40.83%
Structure (SMILES): CC(C)NCC(O)c1ccc(NS(C)(=O)=O)cc1.Cl (racemic) [(±)-Sotalol hydrochloride]

% inhibition [4]: -0.19%
% conversion [3]: 36.54%
Structure (SMILES): CCN1CCCC1CNC(=O)c1cc(S(N)(=O)=O)ccc1OC (racemic) [(±)-Sulpiride]

Inhibition at 20 µM [%] (AspH activity, fixed compound concentration 20 μM, initial LOPAC screen, 0.5%v/v DMSO): 97.5%
% conversion [3]: 3.21%
Structure (SMILES): O=C1c2c(O)cc(O)cc2O[C@H](c2ccc(O)c(O)c2)[C@H]1O (racemic) [(±)-Taxifolin, reference compound]

% inhibition [4]: -5.00%
% conversion [3]: 38.18%
Structure (SMILES): O=C1CCC(N2C(=O)c3ccccc3C2=O)C(=O)N1 (racemic) [(±)-Thalidomide]

Plate 2 (% conversion) [5]: 32.67%
Plate 2 (% inhibition) [6]: 9.80%
Structure (SMILES): COc1cc(C(O)C(=O)O)ccc1O (racemic) [(±)-Vanillylmandelic acid]

% inhibition [4]: 5.35%
% conversion [3]: 34.64%
Structure (SMILES): O=C(O)CCCCC1CCSS1 (racemic) [(±)-alpha-Lipoic Acid]

% conversion [3]: 37.96%
Structure (SMILES): C=CC(N)CCC(=O)O (racemic) [(±)-gamma-Vinyl GABA]

Plate 1 (% inhibition) [1]: -1.40%
Plate 1 (% conversion) [2]: 36.34%
Structure (SMILES): NC(Cc1ccc(Cl)cc1)C(=O)O (racemic) [(±)-p-Chlorophenylalanine]

Plate 2 (% conversion) [5]: 31.43%
Plate 2 (% inhibition) [6]: 13.51%
Structure (SMILES): COC(=O)C1=C(C)NC(C)=C(C(=O)O[C@@H]2CCCN(Cc3ccccc3)C2)[C@@H]1c1cccc([N+](=O)[O-])c1.Cl (racemic) [Benidipine hydrochloride]
